Data: BindingDB's records for doi:10.1021/jm00012a012 (Wellcome Research Laboratories, 1995)
pIC50: −log10 of the molar value.

Experiment: Activity against adenosine diphosphate (ADP) induced platelet aggregation

Compound	pIC50
CCCCCCOc1ccc(C(=O)OCCCC[N+](C)(C)C)cc1 [[4-(4-Hexyloxy-benzoyloxy)-butyl]-trimethyl-ammonium; iodide]	4.65
CCCCCCCCCCCCCCCCOc1c(OC)cc(C(=O)OCCCC[N+](C)(C)C)cc1OC [[4-(4-Hexadecyloxy-3,5-dimethoxy-benzoyloxy)-butyl]-trimethyl-ammonium; iodide]	5.54
CCCCCCOc1c(OC)cc(CCCCc2scnc2C)cc1OC [5-[4-(4-Hexyloxy-3,5-dimethoxy-phenyl)-butyl]-4-methyl-thiazole]	4.87
CCCCCCOc1c(C)cc(C(=O)OCCCC[N+](C)(C)C)cc1C [[4-(4-Hexyloxy-3,5-dimethyl-benzoyloxy)-butyl]-trimethyl-ammonium; iodide]	4.92
CCCCCCCCCCOc1c(OC)cc(C(=O)OCC[N+](C)(C)C)cc1OC [[2-(4-Decyloxy-3,5-dimethoxy-benzoyloxy)-ethyl]-trimethyl-ammonium; iodide]	5.70
CCCCCCCCOc1c(OC)cc(C(=O)OCCCC[N+](C)(C)C)cc1OC [[4-(3,5-Dimethoxy-4-octyloxy-benzoyloxy)-butyl]-trimethyl-ammonium; iodide]	4.86
CCCCCCOc1c(Cl)cc(C(=O)OCCCC[N+](C)(C)C)cc1OC [[4-(3-Chloro-4-hexyloxy-5-methoxy-benzoyloxy)-butyl]-trimethyl-ammonium; iodide]	5.02
CCCCCCOc1c(OC)cc(C(=O)OCc2ccccc2C[N+](C)(C)C)cc1OC [[2-(4-Hexyloxy-3,5-dimethoxy-benzoyloxymethyl)-benzyl]-trimethyl-ammonium; iodide]	4.80
